# From PMC10178127, “Immunomodulatory Effects of the Pea Defensin Psd1 in the Caco-2/Immune Cells Co-Culture upon Candida albicans Infection” (International Journal of Molecular Sciences, 2023)
# Tested on: Caco-2 polarized monolayer
# Assay: Multiplex xMAP cytokine production, Caco-2 monolayer without immune cells
# Format: cell-based, human
# Settings: 24 h; for EGF level / Eotaxin level / FGF-2 level / FLT-3L level / Fractalkine level / G-CSF level / GM-CSF level / GROa level / IFNa2 level / IFNg level / IL-1RA level / IL-1a level / IL-1b level / IL-2 level / IL-3 level / IL-4 level / IL-5 level / IL-6 level / IL-7 level / IL-8 level / IL-9 level / IL-10 level / IL-12 (p40) level / IL-12 (p70) level / IL-13 level / IL-15 level / IL-17A level / IL-17E/IL-25 level / IL-17F level / IL-18 level / IL-22 level / IL-27 level / IP-10 level / M-GSF level / MCP-1 level / MCP-3 level / MDC level / MIG level / MIP-1a level / MIP-1b level / PDGF-AA level / PDGF-AB/BB level / RANTES level / TGF-a level / TNFa level / TNFb level / VEGFa level / sCD40L level: 2 µM apical, basolateral medium
# Procedure: To estimate the impact of Candida albicans on cytokine production by intestinal-like epithelium, Caco-2 polarized monolayer without immune cells was used. […] A decrease in concentrations of IL-13 and IL-18 was also observed.
# For growing cells, mimicking epithelial barriers in vitro, Caco-2 cells were seeded onto 24-well polycarbonate Millicell cell culture inserts (0.4 μm, 0.6 cm^2 surface area) (Millipore, Burlington, MA, USA), precoated with 0.2% bovine gelatin (Sigma-Aldrich), at a density of 2.5 × 10^5 cells/cm^2. The cells were grown for 21 days in a complete DMEM/F12 (1:1) medium with re-feeding every 2–3 days with a fresh complete medium. The integrity of the Caco-2 cell monolayer was checked by measuring the transepithelial electrical resistance (TEER) using a Millicell-ERS Voltohmmeter (Millipore). Only cell monolayers with TEER > 400 Ωcm^2 (after subtracting TEER in blank inserts without Caco-2 cells) were used in transport across epithelial monolayer and cytokine production experiments.
# Monocytes and moDCs were seeded into the wells of 48- and 24-well plates in the complete RPMI-1640 medium supplemented with 10% human AB serum (HABS, Capricorn Scientific) without antibiotics 24 h prior to the experiment, and kept in a humidified CO2-incubator (5% CO2, 37 °C). After 24 h, the medium in the wells of the 48-well plate was replaced by fresh complete RPMI-1640 medium with 10% HABS, supplemented with 2 µM of Psd1 for the sample wells or fresh medium alone for the control wells. Medium in the wells of the 24-well plate was replaced by fresh complete RPMI-1640 medium with 10% human serum without antibiotics. Then, Millicell inserts with Caco-2 monolayers with TEER > 400 Ωcm^2 were placed into the wells of the 24-well plate, containing monocytes or moDCs. Wells with Millicell inserts with Caco-2 monolayers without immune cells were used as control wells. Medium in apical chambers of Millicell inserts was replaced by fresh complete RPMI-1640 with 10% human serum medium containing Psd1 at the final concentration of 2 µM or Candida albicans at the concentration of 5 × 10^4 cells/mL or yeast cells together with the pea defensin at the same concentration. Fresh complete RPMI-1640 medium only with 10% human serum and without antibiotics was used in control wells. Plates were kept in CO2-incubator (5% CO2, 37 °C) for another 24 h. Culture supernatants from the wells of the 48-well plate and basolateral chambers of the 24-well plate were collected and stored at −70 °C degrees less than one month prior to the analytes assessment.
# The following 48 analytes were measured at a protein level by multiplex xMAP technology using the MILLIPLEX Human Cytokine/Chemokine/Growth Factor Panel A kit (HCYTA-60K-PX48, Merck, Darmstadt, Germany): sCD40L, EGF, Eotaxin-1/CCL11, FGF-2/FGF-basic, Flt-3 ligand, Fractalkine/CX3CL1, G-CSF, GM-CSF, GROα/CXCL1, IFNα2, IFNγ, IL-1α, IL-1β, IL-1RA, IL-2, IL-3, IL-4, IL-5, IL-6, IL-7, IL-8/CXCL8, IL-9, IL-10, IL-12(p40), IL-12(p70), IL-13, IL-15, IL-17A/CTLA8, IL-17E/IL-25, IL-17F, IL-18, IL-22, IL-27, IP-10/CXCL10, MCP-1/CCL2, MCP-3/CCL7, M-CSF, MDC/CCL22, MIG/CXCL9, MIP-1α/CCL3, MIP-1β/CCL4, PDGF-AA, PDGF-AB/BB, RANTES/CCL5, TGFα, TNFα, TNFβ, and VEGF-A. Multiplex-based assay read-out was performed using the MAGPIX system (Merck) with the xPONENT 4.2 software (Merck) in accordance with the manufacturer’s instruction with overnight incubation of the samples with primary antibodies. A final analysis was carried out with the MILLIPLEX Analyst v5.1 software (Merck). Measurements were performed twice for each sample. Release of the analytes in control and experimental samples was compared with an unpaired two-sample t-test using GraphPad Prism v.8.0.1 (GraphPad Software, Inc., San Diego, CA, USA). The p values ≤ 0.05 were considered significant.
substance,measurement,setting,value
"Psd1: pea defensin from Pisum sativum (UNIPROT P81929), recombinant peptide overexpressed in Escherichia coli (KTCEHLADTYRGVCFTNASCDDHCKNKAHLISGTCHNWKCFCTQNC; UniProt P81929 1-46, looked up)",EGF level,Caco-2+Candida+Psd1,1.19 pg/mL
same,Eotaxin level,Caco-2+Candida+Psd1,<3.52↓ pg/ml
same,FGF-2 level,Caco-2+Candida+Psd1,<13.35↓ pg/ml
same,FLT-3L level,Caco-2+Candida+Psd1,<0.40↓ pg/ml
same,Fractalkine level,Caco-2+Candida+Psd1,<17.82↓ pg/ml
same,G-CSF level,Caco-2+Candida+Psd1,<3.01↓ pg/ml
same,GM-CSF level,Caco-2+Candida+Psd1,<0.89↓ pg/ml
same,GROa level,Caco-2+Candida+Psd1,34.82 pg/mL
same,IFNa2 level,Caco-2+Candida+Psd1,<4.56↓ pg/ml
same,IFNg level,Caco-2+Candida+Psd1,<2.23↓ pg/ml
same,IL-1RA level,Caco-2+Candida+Psd1,<0.66↓ pg/ml
same,IL-1a level,Caco-2+Candida+Psd1,<3.42↓ pg/ml
same,IL-1b level,Caco-2+Candida+Psd1,<2.26↓ pg/ml
same,IL-2 level,Caco-2+Candida+Psd1,<0.95↓ pg/ml
same,IL-3 level,Caco-2+Candida+Psd1,<0.60↓ pg/ml
same,IL-4 level,Caco-2+Candida+Psd1,<1.14↓ pg/ml
same,IL-5 level,Caco-2+Candida+Psd1,<0.30↓ pg/ml
same,IL-6 level,Caco-2+Candida+Psd1,0.67 pg/mL
same,IL-7 level,Caco-2+Candida+Psd1,<0.38↓ pg/ml
same,IL-8 level,Caco-2+Candida+Psd1,4.2 pg/mL
same,IL-9 level,Caco-2+Candida+Psd1,<2.08↓ pg/ml
same,IL-10 level,Caco-2+Candida+Psd1,<1.24↓ pg/ml
same,IL-12 (p40) level,Caco-2+Candida+Psd1,<3.56↓ pg/ml
same,IL-12 (p70) level,Caco-2+Candida+Psd1,<1.68↓ pg/ml
same,IL-13 level,Caco-2+Candida+Psd1,<2.61↓ pg/ml
same,IL-15 level,Caco-2+Candida+Psd1,<1.43↓ pg/ml
same,IL-17A level,Caco-2+Candida+Psd1,<2.09↓ pg/ml
same,IL-17E/IL-25 level,Caco-2+Candida+Psd1,<18.85↓ pg/ml
same,IL-17F level,Caco-2+Candida+Psd1,<19.03↓ pg/ml
same,IL-18 level,Caco-2+Candida+Psd1,2.95 pg/mL
same,IL-22 level,Caco-2+Candida+Psd1,<5.23↓ pg/ml
same,IL-27 level,Caco-2+Candida+Psd1,<11.43↓ pg/ml
same,IP-10 level,Caco-2+Candida+Psd1,5.8 pg/mL
same,M-GSF level,Caco-2+Candida+Psd1,<24.28↓ pg/ml
same,MCP-1 level,Caco-2+Candida+Psd1,<2.03↓ pg/ml
same,MCP-3 level,Caco-2+Candida+Psd1,<4.18↓ pg/ml
same,MDC level,Caco-2+Candida+Psd1,<0.30↓ pg/ml
same,MIG level,Caco-2+Candida+Psd1,<3.51↓ pg/ml
same,MIP-1a level,Caco-2+Candida+Psd1,<1.88↓ pg/ml
same,MIP-1b level,Caco-2+Candida+Psd1,<0.16↓ pg/ml
same,PDGF-AA level,Caco-2+Candida+Psd1,160.02 pg/mL
same,PDGF-AB/BB level,Caco-2+Candida+Psd1,<5.84↓ pg/ml
same,RANTES level,Caco-2+Candida+Psd1,<0.62↓ pg/ml
same,TGF-a level,Caco-2+Candida+Psd1,<0.63↓ pg/ml
same,TNFa level,Caco-2+Candida+Psd1,<3.89↓ pg/ml
same,TNFb level,Caco-2+Candida+Psd1,1.64 pg/mL
same,VEGFa level,Caco-2+Candida+Psd1,197.1 pg/mL
same,sCD40L level,Caco-2+Candida+Psd1,<4.88↓ pg/ml
same,EGF level,Caco-2+Psd1,1.19 pg/mL
same,Eotaxin level,Caco-2+Psd1,<3.52↓ pg/ml
same,FGF-2 level,Caco-2+Psd1,<13.35↓ pg/ml
same,FLT-3L level,Caco-2+Psd1,0.46 pg/mL
same,Fractalkine level,Caco-2+Psd1,<17.82↓ pg/ml
same,G-CSF level,Caco-2+Psd1,<3.01↓ pg/ml
same,GM-CSF level,Caco-2+Psd1,<0.89↓ pg/ml
same,GROa level,Caco-2+Psd1,27.77 pg/mL
same,IFNa2 level,Caco-2+Psd1,<4.56↓ pg/ml
same,IFNg level,Caco-2+Psd1,<2.23↓ pg/ml
same,IL-1RA level,Caco-2+Psd1,<0.66↓ pg/ml
same,IL-1a level,Caco-2+Psd1,3.99 pg/mL
same,IL-1b level,Caco-2+Psd1,<2.26↓ pg/ml
same,IL-2 level,Caco-2+Psd1,<0.95↓ pg/ml
same,IL-3 level,Caco-2+Psd1,<0.60↓ pg/ml
same,IL-4 level,Caco-2+Psd1,2.07 pg/mL
same,IL-5 level,Caco-2+Psd1,<0.30↓ pg/ml
same,IL-6 level,Caco-2+Psd1,2.29 pg/mL
same,IL-7 level,Caco-2+Psd1,<0.38↓ pg/ml
same,IL-8 level,Caco-2+Psd1,11.44 pg/mL
same,IL-9 level,Caco-2+Psd1,<2.08↓ pg/ml
same,IL-10 level,Caco-2+Psd1,<1.24↓ pg/ml
same,IL-12 (p40) level,Caco-2+Psd1,<3.56↓ pg/ml
same,IL-12 (p70) level,Caco-2+Psd1,<1.68↓ pg/ml
same,IL-13 level,Caco-2+Psd1,6.35 pg/mL
same,IL-15 level,Caco-2+Psd1,<1.43↓ pg/ml
same,IL-17A level,Caco-2+Psd1,<2.09↓ pg/ml
same,IL-17E/IL-25 level,Caco-2+Psd1,<18.85↓ pg/ml
same,IL-17F level,Caco-2+Psd1,<19.03↓ pg/ml
same,IL-18 level,Caco-2+Psd1,3.42 pg/mL
same,IL-22 level,Caco-2+Psd1,<5.23↓ pg/ml
same,IL-27 level,Caco-2+Psd1,<11.43↓ pg/ml
same,IP-10 level,Caco-2+Psd1,7.04 pg/mL
same,M-GSF level,Caco-2+Psd1,<24.28↓ pg/ml
same,MCP-1 level,Caco-2+Psd1,<2.03↓ pg/ml
same,MCP-3 level,Caco-2+Psd1,<4.18↓ pg/ml
same,MDC level,Caco-2+Psd1,<0.30↓ pg/ml
same,MIG level,Caco-2+Psd1,<3.51↓ pg/ml
same,MIP-1a level,Caco-2+Psd1,<1.88↓ pg/ml
same,MIP-1b level,Caco-2+Psd1,<0.16↓ pg/ml
same,PDGF-AA level,Caco-2+Psd1,347.49 pg/mL
same,PDGF-AB/BB level,Caco-2+Psd1,<5.84↓ pg/ml
same,RANTES level,Caco-2+Psd1,<0.62↓ pg/ml
same,TGF-a level,Caco-2+Psd1,0.67 pg/mL
same,TNFa level,Caco-2+Psd1,<3.89↓ pg/ml
same,TNFb level,Caco-2+Psd1,5.02 pg/mL
same,VEGFa level,Caco-2+Psd1,413.86 pg/mL
same,sCD40L level,Caco-2+Psd1,<4.88↓ pg/ml
same,"IL-6, IL-8/CXCL8, and IP-10 production","Caco-2, 2 μM apical",increase
same,direct immunomodulatory action on epithelial cells,"Caco-2, 2 μM apical",no significant direct immunomodulatory action
